Assay results taken from US20260217708A1, “FUSED BENZAZEPINE DERIVATIVES FOR USE IN THE TREATMENT OF CANCER AND EPILEPSY” (UCB BIOPHARMA SRL, priority 2023, published 2026).

Experiments:
system Xc^− [1] = target: T1, system Xc^− (Homo sapiens, UniProt Q9UPY5); test: Cystine-induced glutamate release assay; assay type: cell-based; set-up: endogenous in cells; host or cells: H4 cells; conditions: H4 cells, sodium-free HEPES buffer, 50 μM L-Cystine, 2 hours, Amplex Red glutamate readout; read-out: pIC50 Cystine-induced glutamate release assay (converted)
T1 sequence (Q9UPY5 1-501): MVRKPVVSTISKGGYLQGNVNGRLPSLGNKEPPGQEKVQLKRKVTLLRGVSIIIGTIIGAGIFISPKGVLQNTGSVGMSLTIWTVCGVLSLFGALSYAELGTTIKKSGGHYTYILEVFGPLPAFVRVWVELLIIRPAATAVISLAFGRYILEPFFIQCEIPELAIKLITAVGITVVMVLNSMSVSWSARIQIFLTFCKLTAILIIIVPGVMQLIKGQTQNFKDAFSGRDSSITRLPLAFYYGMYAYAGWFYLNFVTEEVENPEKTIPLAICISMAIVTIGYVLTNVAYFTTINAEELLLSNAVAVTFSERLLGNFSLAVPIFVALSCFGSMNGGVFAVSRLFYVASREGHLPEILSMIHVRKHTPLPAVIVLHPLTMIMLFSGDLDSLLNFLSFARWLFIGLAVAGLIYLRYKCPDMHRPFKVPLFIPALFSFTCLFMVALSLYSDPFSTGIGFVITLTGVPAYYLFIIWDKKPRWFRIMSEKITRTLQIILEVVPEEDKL
T1 sequence (P08195 1-529 partner): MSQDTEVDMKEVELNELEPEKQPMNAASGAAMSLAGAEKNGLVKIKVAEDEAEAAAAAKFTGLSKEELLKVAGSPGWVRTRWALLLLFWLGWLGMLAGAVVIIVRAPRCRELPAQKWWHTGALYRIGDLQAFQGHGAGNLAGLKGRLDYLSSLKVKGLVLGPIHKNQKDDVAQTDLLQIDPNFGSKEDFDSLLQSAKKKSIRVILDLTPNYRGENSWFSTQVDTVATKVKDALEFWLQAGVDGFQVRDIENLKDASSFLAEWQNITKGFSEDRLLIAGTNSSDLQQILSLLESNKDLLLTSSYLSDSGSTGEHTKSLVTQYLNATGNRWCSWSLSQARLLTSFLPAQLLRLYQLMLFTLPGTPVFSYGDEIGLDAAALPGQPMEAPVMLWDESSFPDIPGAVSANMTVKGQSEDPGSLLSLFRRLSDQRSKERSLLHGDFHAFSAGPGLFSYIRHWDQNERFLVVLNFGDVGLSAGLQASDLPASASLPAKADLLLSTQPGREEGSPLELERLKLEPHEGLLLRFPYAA
In short: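 H4 cells in sodium-free HEPES buffer (pH 7.4), 2 days after plating; glutamate release induced with 50 μM L-cystine plus compound (1% DMSO), 2 h at 37 °C. Supernatant glutamate measured by Amplex Red fluorescence; IC50/pIC50 derived between 1% DMSO and 50 μM erastin controls.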

system Xc^− [2] = target: T1, system Xc^−; test: [^14C]L-Cystine uptake assay; assay type: cell-based; set-up: endogenous in cells; host or cells: H4 cells; conditions: H4 cells, sodium-free HEPES buffer, 0.5 μM L-[14C]Cystine and 4.5 μM L-Cystine, 1 hour at 37° C.; read-out: pIC50 [^14C] L-Cystine uptake assay (converted)
In short: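 H4 cells at 5×10^4 cells/well in sodium-free HEPES buffer were preincubated 15 min with compounds (1% DMSO). Uptake of 0.5 μM [14C]L-cystine plus 4.5 μM unlabelled L-cystine ran 1 hour at 37° C on scintillating plates. IC50 was set between 1% DMSO and 50 μM Erastin controls and expressed as pIC50.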

| Compound | IC50 (system Xc^− [1]) [nM] | IC50 (system Xc^− [2]) [nM] |
| --- | --- | --- |
| Cc1cc2c(c(F)n1)-c1cccnc1C(C)C(=O)N2CC(=O)Nc1ccc(C)c(F)c1 (stereo not shown) [#128, 2-(3-fluoro-5,10-dimethyl-9-oxo-4,8,12-triazatricyclo[9.4.0.0^2,7]pentadeca-1(11),2(7),3,5,12,14-hexaen-8-yl)-N-(3-fluoro-4-methyl-phenyl)acetamide] | 15.8 to 39.8 | < 15.8 |
| Cc1cc2c(c(F)n1)-c1cccnc1C(C)C(=O)N2CC(=O)Nc1ccc2c(cnn2C)c1 (stereo not shown) [#129, 2-(3-fluoro-5,10-dimethyl-9-oxo-4,8,12-triazatricyclo[9.4.0.0^2,7]pentadeca-1(11),2(7),3,5,12,14-hexaen-8-yl)-N-(1-methylindazol-5-yl)acetamide] | 39.8 to 100 | 39.8 to 100 |
| Cc1cc2c(c(F)n1)-c1cccnc1C(C)C(=O)N2CC(=O)Nc1ccc(F)c(F)c1 (stereo not shown) [#130, N-(3,4-difluorophenyl)-2-(3-fluoro-5,10-dimethyl-9-oxo-4,8,12-triazatricyclo[9.4.0.0^2,7]pentadeca-1(11),2(7),3,5,12,14-hexaen-8-yl)acetamide] | 39.8 to 100 | 39.8 to 100 |
| COc1ccc(NC(=O)CN2C(=O)C(C)c3ncccc3-c3c2cc(C)nc3F)cc1F (stereo not shown) [#131, 2-(3-fluoro-5,10-dimethyl-9-oxo-4,8,12-triazatricyclo[9.4.0.0^2.7]pentadeca-1(11),2(7),3,5,12,14-hexaen-8-yl)-N-(3-fluoro-4-methoxy-phenyl)acetamide] | 39.8 to 100 | 15.8 to 39.8 |
| Cc1cc2c(c(F)n1)-c1cccnc1C(C)C(=O)N2CC(=O)Nc1ccc(C(F)F)cc1 (stereo not shown) [#132, N-[4-(difluoromethyl)phenyl]-2-(3-fluoro-5,10-dimethyl-9-oxo-4,8,12-triazatricyclo[9.4.0.0^2,7]pentadeca-1(11),2(7),3,5,12,14-hexaen-8-yl)acetamide] | 39.8 to 100 | < 15.8 |
| Cc1cc2c(c(F)n1)-c1cccnc1C(C)C(=O)N2CC(=O)Nc1ccc(C#N)c(F)c1 (stereo not shown) [#133, N-(4-cyano-3-fluoro-phenyl)-2-(3-fluoro-5,10-dimethyl-9-oxo-4,8,12-triazatricyclo[9.4.0.0^2,7]pentadeca-1(11),2(7),3,5,12,14-hexaen-8-yl)acetamide] | 39.8 to 100 | 39.8 to 100 |
| Cc1cc2c(c(F)n1)-c1ccccc1CC(=O)N2CC(=O)Nc1ccc(C(F)F)cc1 [#134, N-[4-(difluoromethyl)phenyl]-2-(1-fluoro-3-methyl-6-oxo-7H-pyrido[4,3-d][3]benzazepin-5-yl)acetamide] | 39.8 to 100 | < 15.8 |
| Cc1cc2c(c(F)n1)-c1cccnc1C(C)C(=O)N2CC(=O)Nc1ccc(C2CC2)c(F)c1 (stereo not shown) [#135, N-(4-cyclopropyl-3-fluoro-phenyl)-2-(3-fluoro-5,10-dimethyl-9-oxo-4,8,12-triazatricyclo[9.4.0.0^2,7]pentadeca-1(11),2(7),3,5,12,14-hexaen-8-yl)acetamide] | 15.8 to 39.8 | < 15.8 |
| Cc1cc2c(c(F)n1)-c1cccnc1C(C)C(=O)N2CC(=O)Nc1ccc(OC(F)F)c(F)c1 (stereo not shown) [#136, N-[4-(difluoromethoxy)-3-fluoro-phenyl]-2-(3-fluoro-5,10-dimethyl-9-oxo-4,8,12-triazatricyclo[9.4.0.0^2,7]pentadeca-1(11),2(7),3,5,12,14-hexaen-8-yl)acetamide] | 100 to 501 | 15.8 to 39.8 |
| Cc1cc2c(c(F)n1)-c1cccnc1[C@@H](C)C(=O)N2CC(=O)Nc1ccc(C(F)(F)F)c(C)c1 [#137, 2-[(10R)-3-fluoro-5,10-dimethyl-9-oxo-4,8,12-triazatricyclo[9.4.0.0^2,7]pentadeca-1(11),2(7),3,5,12,14-hexaen-8-yl]-N-[3-methyl-4-(trifluoromethyl)phenyl]acetamide] | 15.8 to 39.8 | 15.8 to 39.8 |
| Cc1cc2c(c(F)n1)-c1cccnc1[C@@H](C)C(=O)N2CC(=O)Nc1ccc(I)cc1 [#138, 2-[(10R)-3-fluoro-5,10-dimethyl-9-oxo-4,8,12-triazatricyclo[9.4.0^2,7]pentadeca-1(11),2(7),3,5,12,14-hexaen-8-yl]-N-(4-iodophenyl)acetamide] | < 15.8 | < 15.8 |
| Cc1cc2c(c(F)n1)-c1cccnc1[C@@H](C)C(=O)N2CC(=O)Nc1ccc(OC(F)F)cc1 [#139, N-[4-(difluoromethoxy)phenyl]-2-[(10R)-3-fluoro-5,10-dimethyl-9-oxo-4,8,12-triazatricyclo[9.4.0.0^2,7]pentadeca-1(11),2(7),3,5,12,14-hexaen-8-yl]acetamide] | 15.8 to 39.8 | 15.8 to 39.8 |
| Cc1cc2c(c(F)n1)-c1cccnc1[C@@H](C)C(=O)N2CC(=O)Nc1ccc(F)c(F)c1 [#140, N-(3,4-difluorophenyl)-2-[(10R)-3-fluoro-5,10-dimethyl-9-oxo-4,8,12-triazatricyclo[9.4.0.0^2,7]pentadeca-1(11),2(7),3,5,12,14-hexaen-8-yl]acetamide] | 15.8 to 39.8 | 15.8 to 39.8 |
| Cc1cc2c(c(F)n1)-c1cccnc1[C@@H](C)C(=O)N2CC(=O)Nc1ccc2c(cnn2C)c1 [#141, 2-[(10R)-3-fluoro-5,10-dimethyl-9-oxo-4,8,12-triazatricyclo[9.4.0.0^2,7]pentadeca-1(11),2(7),3,5,12,14-hexaen-8-yl]-N-(1-methylindazol-5-yl)acetamide] | 15.8 to 39.8 | 15.8 to 39.8 |
| Cc1cc2c(c(F)n1)-c1cccnc1[C@@H](C)C(=O)N2CC(=O)Nc1ccc(C2CC2)cc1 [#142, N-(4-cyclopropylphenyl)-2-[(10R)-3-fluoro-5,10-dimethyl-9-oxo-4,8,12-triazatricyclo[9.4.0.0^2,7]pentadeca-1(11),2(7),3,5,12,14-hexaen-8-yl]acetamide] | 15.8 to 39.8 | < 15.8 |
| Cc1cc2c(c(F)n1)-c1cccnc1[C@@H](C)C(=O)N2CC(=O)Nc1ccc(C(F)(F)F)c(F)c1 [#143, 2-[(10R)-3-fluoro-5,10-dimethyl-9-oxo-4,8,12-triazatricyclo[9.4.0.0^2,7]pentadeca-1(11),2(7),3,5,12,14-hexaen-8-yl]-N-[3-fluoro-4-(trifluoromethyl)phenyl]acetamide] | 15.8 to 39.8 | < 15.8 |
| Cc1cc2c(c(F)n1)-c1cccnc1[C@@H](C)C(=O)N2CC(=O)Nc1ccc(C2CC2)c(F)c1 [#144, N-(4-cyclopropyl-3-fluoro-phenyl)-2-[(10R)-3-fluoro-5,10-dimethyl-9-oxo-4,8,12-triazatricyclo[9.4.0.0^2,7]pentadeca-1(11),2(7),3,5,12,14-hexaen-8-yl]acetamide] | 15.8 to 39.8 | < 15.8 |
| Cc1cc2c(c(F)n1)-c1cccnc1[C@@H](C)C(=O)N2CC(=O)Nc1ccc(Br)cc1 [#145, N-(4-bromophenyl)-2-[(10R)-3-fluoro-5,10-dimethyl-9-oxo-4,8,12-triazatricyclo[9.4.0.0^2,7]pentadeca-1(11),2(7),3,5,12,14-hexaen-8-yl]acetamide] | < 15.8 | < 15.8 |
| Cc1cc2c(c(F)n1)-c1cccnc1[C@@H](C)C(=O)N2CC(=O)Nc1ccc2c(c1)nnn2C [#147, 2-[(10R)-3-fluoro-5,10-dimethyl-9-oxo-4,8,12-triazatricyclo[9.4.0.0^2,7]pentadeca-1(11),2(7),3,5,12,14-hexaen-8-yl]-N-(1-methylbenzotriazol-5-yl)acetamide] | 39.8 to 100 | 100 to 501 |
| Cc1cc2c(c(F)n1)-c1cccnc1[C@@H](C)C(=O)N2CC(=O)Nc1ccc2c(cnn2C(F)F)c1 [#148, N-[1-(difluoromethyl)indazol-5-yl]-2-[(10R)-3-fluoro-5,10-dimethyl-9-oxo-4,8,12-triazatricyclo[9.4.0.0^2,7]pentadeca-1(11),2(7),3,5,12,14-hexaen-8-yl]acetamide] | 39.8 to 100 | 15.8 to 39.8 |
